The subject of data set [1] is phenylephrine (PE)-treated myocyte proteins. Briefly: Solid phase screening of Library 1 with labeled myocyte proteins; bound proteins identified by on-bead digest and peptide mass fingerprinting. It is filed as binding, neonatal Wistar rats. Conditions: Library 1 ligand on PEGA4000 bead; Phenylephrine Treated (Hyperthrophic) Myocytes. The protocol:
(§1) Myocytes were prepared from 1 to 5 day old neonatal Wistar rats (University of Copenhagen) according to literature procedure described in Busk et al., 2002, Cardiovasc. Res., 56: 64-75 and plated into eight P10 culture plates at 6 million cells/plate.
(§2) Protein was extracted from myocytes prepared as described above for Example 9, using a new procedure modified from existing protocols, primarily: Arrott, et al., 1998, Anal Biochem. 258: 1-18. The media was removed from plates and adhered cells were treated for 10 minutes with ice cold phosphate buffer (0.25 mL, 10 mM, pH 7.5, augmented with 0.15 M NaCl 60 mM Benzamidine HCl, 5 mM EDTA, 10 μg/n E-64, 10 μg/mL Leu-peptin, 10 μg/mL Pepstatin A, and 1 mM PMSF). The cells were scraped off the plates and then lysed (on ice) in a sonicator (2×) using 10 seconds off/10 seconds on cycles.
(§3) The resulting suspension was augmented with CHAPS, DTT, and urea to a final concentration of CHAPS (1% w/v), DTT (5 mM), and urea (8 M). After 10-15 minutes on ice, the solution was centrifuged for 10 minutes at 15,000 rpm at 4° C. The supernatant was removed and protein content quantified using the NanoOrange Protein test (Molecular Probes, Eugene, Oreg.): Total protein recovered: 70.5 μg for PE-treated cells and 60 μg for basal cells.
(§4) Fluorescent dye Oregon Green 514 (OR) (Molecular Probes) was used to label the healthy/basal cells while Rhodamine Red (RR) (Molecular Probes) was used to label the PE-treated cells. The labeling procedures were carried out according to the manufacturer's protocol. The protein solutions (0.25 mL, 50.4 μg for PE cells and 0.25 mL, 42.8 μg for basal cells) were dialyzed against a solution of 10 mM phosphate buffer, 0.15 M NaCl, pH 7.5 and then 1 M NaHCO3 (0.025 mL) added to a final pH of 8.5. 10 μL of dye in dry DMF (10 mg/mL) was added and the sample stirred at room temperature for 2 hours. The protein solution was dialyzed extensively against 10 mM phosphate buffer, 0.15 M NaCl, pH 7.5, to remove excess dye.
(§5) Ligand library 1 (200 mg), prepared as described for Example 5, was transferred to a syringe fitted with a stop-valve and the ligand-beads were washed for 10 minutes (3×) with 10 mM phosphate buffer, pH 6.8, supplemented with 0.15 M NaCl, 1 mM Ca^2+, 1 mM Zn^2+, 1 mM Mn^2+, 1 mM Cu^2+, and 1 mM Mg^2+ (3 mL). The ligand-beads were treated with a 1% BSA solution for 30 minutes, then washed with buffer (1×). A mixture of labeled myocyte proteins, including both PE-induced protein (138 μL, 40 μg) and basal protein (167 μL, 40 μg) obtained as described above for Example 11, was prepared in 1.2 mL buffer, and added to the ligand library in the syringe. The proteins and ligand library were incubated at room temperature for 16 hours. The library was then washed with buffer for 5 minutes then with water for 3×5 minutes. The library was examined under a fluorescence microscope and brightly fluorescent red, green, and yellow beads (yellow indicative of both dyes red and green binding; the majority of the beads) were present, as well as unlabelled beads. The fluorescent beads were separated and retained for analysis.
(§6) The fluorescent ligand library beads containing bound protein obtained as described in Example 15 were sorted using a COPAS (250) NF Bead Sorter (Union Biometrica, Somerville, Mass.) equipped with a single flourescence emission. Beads emitting fluorescence of only one color contain proteins from one physical state, e.g. proteins expressed only in the PE-induced hypertrophic state (red) or proteins expressed only in the basal state (green). Since the instrument measures one fluorescence emission at a time, beads containing one type of color fluorescence were first sorted and then beads were resorted for emissions from the other fluorescence color. The library was first sorted such that all beads containing significant green fluorescence, basal proteins from healthy myocytes, were isolated. […]

A further data set has as its system cardiac myocytes. Briefly: Inhibition of DNA synthesis (cardiac hypertrophy) in cardiac myocytes treated with peptides (FIG. 3). Type of data set: cell-based. The text has this: The columns indicate average induction of DNA synthesis in cardiac myocytes treated with peptides. The Y-axis indicates fold induction (control basal=100%).
The importance of six ligands in cardiac hypertrophy was investigated by examining the effect of the ligand on the increase in protein synthesis (meaured by increase in DNA synthesis) in myocytes that had been treated with serum to induce a hypertrophic state (FIG. 3).

The subject of data set [2] is normal (basal) myocyte protein mixtures. Nature of the data set: Solid phase screening of Library 1 with labeled myocyte proteins; bound proteins identified by on-bead digest and peptide mass fingerprinting. Type of data set: binding, neonatal Wistar rats. The settings on record: Library 1 ligand on PEGA4000 bead; Normal Myocytes; proteins primarily present in basal cells. The protocol:
as §1, §2, §3, §4, §5, §6

Data set [3] deals with six protein mixture: Con A, P. sativum lectin, L. culinaris lectin, W. floribunda lectin, Glyceraldehyde 6-phosphate, bovine serum albumin. Briefly: Solid phase screening of Library 3 with labeled six protein mixture; affinity purification, gel electrophoresis and Edman degradation. It is filed as binding. Conditions: for Identified Protein(s): Library 3 ligand on PEGA6000 resin.

[4] abbreviates: hypertrophied myocytes (treated with serum to induce a hypertrophic state).

“And” between values parts separate entries of the source, which are not always exact repeats. Equal values may be shown once. “Also recorded” adds a separate entry of the source. Read-outs that look alike come from different tables or passages of the source. Starred links: 1 amine or outer side, 2 acyl side, 3 side chain; linkers in the order of their positions; H or OH if unused. Non-standard residues stand in square brackets, D forms with d. Primed or numbered codes have the meaning given here. No end group written: not given here. Gua = 4-S-(Di-Boc-guanidino)-L-proline, CC(C)(C)OC(=O)N=C(NC(=O)OC(C)(C)C)N[C@H]1C[C@@H](C(=O)[*:2])N([*:1])C1; Pip′ = 4-phenyl-piperidine-4-carboxylic acid, O=C(C1(c2ccccc2)CCN([*:1])CC1)[*:2]; Abi = 3-amino-3-(biphenyl)-propanoic acid; Hyp = O=C(O)[C@@H]1C[C@@H](O)CN1; 3Pal = N[C@@H](Cc1cccnc1)C(=O)O; GlcNN = not defined here; Acm′ = not defined here; ManN = not defined here; ManS = not defined here

Consider Abi-Phe-Abi-Phe-Che-Tyr, for which the “Identified Protein(s)” value in data set [1] is recorded as “Cathepsin E (gi 4503145); Ribosomal proteins (60s L; also recorded: series) (gi 20826861)”.

As to Abi-Thr-Hyp-Hyp-His-, the “Identified Protein(s)” value in data set [1] is recorded as “Phosphofructokinase (gi 7331123); Selenium binding pro-; also recorded: tein (gi 8848341/6677907); (Serine arginine rich pro-; also recorded: tein kinase (LA); Guanylate kinase (gi 20986250) (LA),; also recorded: (M); SPTR (gi 12842823) (M, Actin interacting protein”. In addition, the “extent of DNA synthesis” value with cardiac myocytes (setting [4]) and in the data set with cardiac myocytes (normal myocytes) was “reduced the extent of DNA synthesis” each time.

FTYFAK: the “Identified Protein(s)” value in data set [2] is “Serine/threonine Protein kinase (gi 5730055); Carbonic; also recorded: anhydrase VII (gi 10304383)”.

Consider “GlcNN-Trp-Phe-Asp-Trp-Pro ([GlcNN]WFDWP; reading uncertain)”, for which the “selectivity of binding among the lectins” value in data set [3] was “binds only to Con A and not to the other lectins”. Further, in data set [3] (six protein mixture), the “Identified Protein(s)” value is reported as “Con A”.

Take GlcNN-Val-GlcNN-His-ManS-Gly: the “Identified Protein(s)” value in data set [3] (six protein mixture) was “Con A, P. sativum; also recorded: lectin”.

In the case of HTWGYW, in data set [3] (six protein mixture), the “Identified Protein(s)” value is recorded as “Con A” and the “selectivity of binding among the lectins” value is on record as “binds selectively to Con A”.

In the case of “His-Tyr-Pip-Thr-Acm-Abi (HY[Pip′]T[Acm′][Abi]; reading uncertain; also: printed as His-Tyr-Pip-Thr-Acm-Abi)”, the “Identified Protein(s)” value in data set [2] is “Chain C P27 cyclin A-CDK2 complex: (Cyclin A?) (gi and 2392395); Hypothetical protein XP_154035”.

“Lys-Met-Hyp-Trp-Tyr-Gun (KM[Hyp]WY[Gua])”: the “Identified Protein(s)” value in data set [1] is given as “Cell surface glycoprotein (gi 23603627); Hypothetical; also recorded: protein (XP-179829; gi 14720727)”.

Consider “ManN-Phe-Trp-Ser-Lys-His ([ManN]FWSKH; reading uncertain; also: printed as ManN-Phe-Trp-Ser-Lys-His)”, for which the “Identified Protein(s)” value in data set [3] (six protein mixture) is on record as “Con A, P. sativum; also recorded: lectin”.

On to “ManS-Gly-ManS-Asp-Asn-Ala ([ManS]G[ManS]DNA; reading uncertain; also: printed as ManS-Gly-ManS-Asp-Asn-Ala)”, for which the “Identified Protein(s)” value in data set [3] (six protein mixture) was “Con A, P. sativum; also recorded: lectin”.

In the case of Pal-Gly-Abi-Hyp-Pya-Trp, in data set [1], the “Identified Protein(s)” value is given as “NAS putative unclassified (gi 12861084); Putative Zn; also recorded: finger protein 64 (gi 12849329)”.

As to Phe-Abi-Pal-Hyp-Thr-Hyp, the “Identified Protein(s)” value in data set [1] is on record as “Zinc finger associated protein gi 20304091; Ribosomal; also recorded: proteins 40S L series (gi 206736/133023);”.

With Phe-Gua-Asp-Abi-His-Aze, the “Identified Protein(s)” value in data set [2] is “Hypothetical protein XP_043250 (gi 14773490)”.

Regarding Phe-Gua-Pal-Tyr-Gua-Tyr, the “Identified Protein(s)” value in data set [1] was “Glucose-6-Phosphatase (gi 6679893/15488608); Succinate; also recorded: dehydrogenase; ARL-interacting protein (gi 4927202); also recorded: (M); SPTR (gi 12834839) (M), Nucleic acid binding”. Further, the “extent of DNA synthesis” value in the data set on cardiac myocytes (setting [4]) and in the data set on cardiac myocytes (normal myocytes) was “reduced the extent of DNA synthesis” each time.

Phe-Phe-Phe-Pip-Aze-Gua: the “Identified Protein(s)” value in data set [2] is on record as “Phosphatidyl choline-sterol acyl transferase (400167;; also recorded: LCAT-PIG_9)”.

With Phe-Ppy-Acc-Ala-Ppy-Hpy, the “Identified Protein(s)” value in data set [2] was “Hypothetical proteins; Troponin T gi 547047;; (Phospho-; also recorded: lipase C (MA); Phosphatidyicholine sterol acyl trans-; also recorded: ferase (400167;LCAT-PIG_9))”.

In the case of “Phe-Thr-Pya-Pip-Asp-His (FT[3Pal][Pip′]DH)”, the “Identified Protein(s)” value in data set [2] was “(Sodium channel (gi 18591322) (M); Chloride channel (gi and 6978663/4502867) (M)) Troponin I (gi 1351298);; Zn Fin- and ger protein (gi 18591322) (MA); SPTR (peroxisomal Ca and dependent solute carrier (putative) (gi 12853685); and Beta-2 adnergic receptor (gi 12699028)”.

For the substance Pip-Pal-Pal-Phe-Pya-Pip, the “Identified Protein(s)” value in data set [2] was 544086) (M); Ribosomal proteins (60s) (gi 21426891); and SPTR (gi 20837095) (M) and Ca2+/Calmodulin activated Myosin light chain kinase (gi and 284660) (LA, MA); Regulator of G-Protein Signalling and (RGS14) variant (gi 2708808) ATP Synthase component and (subunit e) (gi 258788) (M);; Cytochrome P450 (gi.

Take Pya-Gua-Abi-Asp-Abi-Tyr: the “Identified Protein(s)” value in data set [1] was “SPTR (gi 20869775) (M); Ribosomal proteins (60s) (gi and 20875941/6677773); (Calcium channel (gi 3202010) (M): and Slo channel protein isoform (gi 3644046) (M); Potassium and conductance calcium activated channel (gi 6754436 and NP_034740) (M);; Regulator of G-protein signalling 8 and (gi 9507049)”. Also, the “extent of DNA synthesis” value in the data set with cardiac myocytes (setting [4]) and with cardiac myocytes (normal myocytes) was “reduced the extent of DNA synthesis” throughout.

Pya-Gua-Pip-Acc-Phe-Pip: the “Identified Protein(s)” value in data set [2] is listed as “NADH dehydrogenase; ATP binding component (gi 18598538); also recorded: (M); Myosin heavy polypeptide 9 (gi 13543854); Histone; also recorded: associated proteins (gi 20893760) (M)”.

Regarding Pya-Hyp-Hyp-Phe-Acm-Tyr, the “Identified Protein(s)” value in data set [2] was “Troponin T (gi 547047); Ca2+/Calmodulin activated My-; also recorded: osin light chain kinase (gi 284660) (LA, MA); cGMP-; also recorded: dependent protein kinase (gi 284660) (LA)”.
